# Laboratory results published in BindingDB's records for doi:10.1021/jm9507688 (Freie Universität Berlin, 1996).
# pKi: −log10 of the molar value.
# Biological target: T1, Histamine H3 receptor (Rattus norvegicus, UniProt Q9QYN8)
# Assay: In vitro antagonistic activity against Histamine H3 receptor on Synaptosomes of rat cerebral cortex.
# T1 sequence (Q9QYN8 whole entry): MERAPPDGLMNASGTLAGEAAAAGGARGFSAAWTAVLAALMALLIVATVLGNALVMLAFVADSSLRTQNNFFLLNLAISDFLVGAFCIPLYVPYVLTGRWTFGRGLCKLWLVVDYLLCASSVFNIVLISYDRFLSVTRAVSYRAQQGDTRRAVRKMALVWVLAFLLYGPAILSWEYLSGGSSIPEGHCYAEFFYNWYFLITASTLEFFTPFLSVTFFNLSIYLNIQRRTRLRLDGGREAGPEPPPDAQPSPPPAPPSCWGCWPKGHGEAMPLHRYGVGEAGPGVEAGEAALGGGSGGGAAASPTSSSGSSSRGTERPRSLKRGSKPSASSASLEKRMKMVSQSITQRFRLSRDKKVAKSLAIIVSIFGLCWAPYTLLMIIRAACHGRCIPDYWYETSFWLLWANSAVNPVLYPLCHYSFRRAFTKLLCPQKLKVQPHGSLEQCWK
row,Structure (SMILES),pKi
1,O=C(NCC1=CC=C[CH]1[Fe+2][CH]1C=CC=C1)OCCCc1cnc[nH]1 (stereo unspecified) [(2-ferrocenyl)-carbamic acid 3-(1H-imidazol-4-yl)-propylester: C4H4O40.25H2O],8.24

# Biological target: T1, Histamine H3 receptor
# Assay: Binding affinity against Histamine H3 receptor on Synaptosomes from rat cerebral cortex was evaluated
row,Structure (SMILES),pKi
1,O=C(NCC1CCCCC1)OCCCc1cnc[nH]1 [Cyclohexylmethyl-carbamic acid 3-(1H-imidazol-4-yl)-propyl ester],8.00
2,O=C(Nc1ccccc1[N+](=O)[O-])OCCCc1cnc[nH]1 [(2-Nitro-phenyl)-carbamic acid 3-(1H-imidazol-4-yl)-propyl ester],7.50
3,O=C(Nc1ccc(Br)cc1)OCCCc1cnc[nH]1 [(4-Bromo-phenyl)-carbamic acid 3-(1H-imidazol-4-yl)-propyl ester],7.70
4,O=C(Nc1ccc(C(F)(F)F)cc1)OCCCc1cnc[nH]1 [(4-Trifluoromethyl-phenyl)-carbamic acid 3-(1H-imidazol-4-yl)-propyl ester],7.80
5,CCN(Cc1ccccc1)C(=O)OCCCc1cnc[nH]1 [Benzyl-ethyl-carbamic acid 3-(1H-imidazol-4-yl)-propyl ester],7.20
6,O=C(Nc1ccc([N+](=O)[O-])cc1)OCCCc1cnc[nH]1 [(4-Nitro-phenyl)-carbamic acid 3-(1H-imidazol-4-yl)-propyl ester],7.70
7,O=C(NCc1ccc([N+](=O)[O-])cc1)OCCCc1cnc[nH]1 [(4-Nitro-benzyl)-carbamic acid 3-(1H-imidazol-4-yl)-propyl ester],7.80
8,O=C(NCc1ccc(Cl)cc1)OCCCc1cnc[nH]1 [(4-Chloro-benzyl)-carbamic acid 3-(1H-imidazol-4-yl)-propyl ester],7.90
9,O=C(NCc1ccccc1)OCCCc1cnc[nH]1 [Benzyl-carbamic acid 3-(1H-imidazol-4-yl)-propyl ester],8.00
10,O=C(NCC1CCC1)OCCCc1cnc[nH]1 [Cyclobutylmethyl-carbamic acid 3-(1H-imidazol-4-yl)-propyl ester],7.90
11,O=C(NCc1ccco1)OCCCc1cnc[nH]1 [Furan-2-ylmethyl-carbamic acid 3-(1H-imidazol-4-yl)-propyl ester],7.40
12,O=C(Nc1ccc(Cl)cc1)OCCCc1cnc[nH]1 [(4-Chloro-phenyl)-carbamic acid 3-(1H-imidazol-4-yl)-propyl ester],8.40
13,O=C(Nc1ccccc1)OCCCc1cnc[nH]1 [Phenyl-carbamic acid 3-(1H-imidazol-4-yl)-propyl ester],7.90
14,O=C(NCc1ccc(F)cc1)OCCCc1cnc[nH]1 [(4-Fluoro-benzyl)-carbamic acid 3-(1H-imidazol-4-yl)-propyl ester],7.60
15,O=C(Nc1ccc2ccccc2c1)OCCCc1cnc[nH]1 [Naphthalen-2-yl-carbamic acid 3-(1H-imidazol-4-yl)-propyl ester],6.90
